Experimental data as given in patent US5308867A, “Platelet activating factor antagonists, named "the phomactins", their preparation and use” (Sankyo Company, Limited, priority 1988, dated 1994).

Tests used:
Solubility = type: physicochemical; settings: for Solubility in organic solvents: methanol, ethanol, acetone, ethyl acetate, chloroform, dimethyl sulfoxide, benzene and diethyl ether
platelet aggregation = experiment: Antiplatelet aggregation test in rabbit platelet-rich plasma, synthetic C16:0 PAF-induced (method of Born et al.); type: cell-based; settings: platelet count 6×10^5 /μl, C16:0 PAF final 1×10^-8 -3×10^-8 M; for IC50: Oryctolagus cuniculus, read-out: IC50 (concentration necessary to inhibit aggregation by 50%)
Procedure: The following antiplatelet aggregation test was performed, using the phomactin A thus obtained.
Blood was drawn from a rabbit heart and immediately mixed with nine times its volume of a 3.8% w/v aqueous solution of sodium citrate. A platelet-rich plasma (PRP) was then obtained as a supernatant by centrifugation of the blood mixture at 150×g for 15 minutes at room temperature. The precipitated fraction remaining from the blood mixture was then centrifuged for a further 15 minutes at 10,000×g to obtain a platelet-poor plasma (PPP) as a supernatant. Appropriate proportions of the PRP and the PPP were mixed to obtain a plasma having a platelet count of 6×10^5 /μl.
Platelet aggregation was determined by the method of Born et al. [Nature, 194, 927-929 (1962)] where an increase in light transmission through the test sample is measured by means of an aggregometer.
The aggregation resulting from the addition of the PAF alone, without the prior addition of the test compound, was taken as 100%.
Instead of the test solution, physiological saline was added and the aggregation at one minutes after the addition of C16 -PAF was used as the control.

[1] = system: infarct size after coronary artery ligation; settings: 5 mg kg^-1 i.v. immediately before occlusion, after 24 h of occlusion, rats, cited from earlier work
[2] = system: arrhythmias evoked by ligation of left anterior descending coronary artery; settings: cited from earlier work

Compound | Solubility in organic solvents (Solubility) | Solubility in water (Solubility) | IC50 (platelet aggregation) [µM] | inhibition of platelet aggregation (platelet aggregation; at a concentration of 10 g/ml (so in the source)) | infarct size ([1]; control 26±2.2%, p<0.05) | infarct size (in words) ([1]; preliminary studies) | number of ectopic beats during the 30 min ischemic period (in words) ([2]; 5 mg kg^-1, 15 min before coronary artery occlusion, mongrel dogs) | Number of ectopic beats, 5-10 min of ischemia, mean ± SEM ([2]; 5 mg kg^-1 i.v. bolus 15 min before ligation, 5-10 min, dogs, p < 0.05 (Wilcoxon)) | Number of ectopic beats, 10-15 min of ischemia, mean ± SEM ([2]; 5 mg kg^-1 i.v. bolus 15 min before ligation, 10-15 min, dogs, p < 0.05 (Wilcoxon)) | Number of ectopic beats, 15-20 min of ischemia, mean ± SEM ([2]; 5 mg kg^-1 i.v. bolus 15 min before ligation, 15-20 min, dogs, p < 0.05 (Wilcoxon)) | Number of ectopic beats, 20-25 min of ischemia, mean ± SEM ([2]; 5 mg kg^-1 i.v. bolus 15 min before ligation, 20-25 min, dogs, p < 0.05 (Wilcoxon)) | Number of ectopic beats, 25-30 min of ischemia, mean ± SEM ([2]; 5 mg kg^-1 i.v. bolus 15 min before ligation, 25-30 min, dogs, p < 0.05 (Wilcoxon))
CC1=CCCC2(C)OC2C(=O)C2=CC(O)C(C)C(C)(CC1)C2(C)O (stereo not drawn) [Phomactin B, 13,15-dihydroxy-3,4-epoxy-2-oxo-4,8,11,12,15-pentamethylbicycl[9.3.1]pentadeca-7,14-diene] | Soluble in methanol, ethanol, acetone, ethyl acetate, chloroform, dimethyl sulfoxide, benzene and diethyl ether | insoluble in water | 17 |  |  |  |  |  |  |  |  | 
CC1=CCCC2(C)OC3CC(C)C(C)(CC1)C1=C3C(O)(OC1)C2O (stereo not drawn) [Phomactin A, 3,3a-dihydroxy-2,6-(3'-methyl-3'-hexeno)-2,6,7-trimethyl-3a,5,6,7,8,8a-hexanhydrofuro[2,3,4-de]chroman] | Soluble in methanol, ethanol, acetone, ethyl acetate, chloroform, dimethyl sulfoxide, benzene and diethyl ether | insoluble in water | 17 | about 91.7% |  |  |  |  |  |  |  | 
CC1C(=O)OC2C(O)C34C5CC(C(C)(C)C)C36C(OC(=O)C6O)OC4(C(=O)O5)C12O (stereo not drawn) [BN-52021] |  |  |  |  | 17±1.8 % of heart tissue | significantly reduced the infarct size | significantly reduced the number of ectopic beats | 10 ± 5.4 | 10 ± 5.3 | 15 ± 6.3 | 55 ± 28.6 | 98 ± 39.0
